Assays:
[1] = DPPH-scavenging activity versus TEMPOL (Example 5); assay type: biochemical; conditions: 60 μM DPPH, 1 to 1000 μM test substance, 5 minutes; FIG. 5
Procedure: (§1) 5-S-GAD or TEMPOL was added to an ethanol solution of 60 μM DPPH to a final concentration of 1 to 1000 μM, for reaction at ambient temperature for 5 minutes. Subsequently, the concentration of the DPPH radical was measured via the absorbance at 517 nm. The DPPH radical concentration in a reaction solution to which PBS(−) instead of the test substance was added, was used as a control. In the same manner as in Example 2, the scavenging ratio (%) of the DPPH radical was calculated and defined as the radical-scavenging activity (see FIG. 5).

[2] = tested on: human LDL; assay: Effect on the oxidation of LDL in human blood, TBARS (Example 11); assay type: biochemical; conditions: LDL + 5 μM CuSO4, TBARS; FIG. 11
Procedure: LDL was prepared by a fractionation and centrifugation method. A fraction at a specific gravity of 1.019 to 1.063 g/mL in serum was defined as human LDL. 5 μM CuSO4, 5-S-GAD (3 to 100 μM) and N-acetyl-carnosine (100 μM to 10 mM) or L-carnosine (10 μM to 10 mM) were added to 0.2 mg/mL LDL, for incubation at 37° C. for 3 hours. After termination of the incubation, TEARS (a substance reactive with thiobarbituric acid) was assayed. Although the TBA reaction is a non-specific reaction, the reaction is used for a method of assaying various lipid peroxide products including malone dialdehyde. An experiment of peroxidation with copper sulfate was done twice (N=2).
An aqueous solution containing 3.75 mg/mL thiobarbituric acid (TBA), 150 mg/mL trichloroacetic acid (TCA) and 0.25 N hydrochloric acid (HCl) was prepared as the TBA reagent, while standard solutions (2, 5, 10, 20, 40 μM) of tetramethoxypropane were prepared. 100 μL each of an LDL sample or a standard solution was added together with 200 μL of the TBA reagent into an Eppendorf tube (1.5 mL), which was then sealed with a cap for thorough mixing. […] The supernatant was assayed of the absorbance (535 nm). Based on the absorbance of the standard solution, a standard curve was prepared. Based on the standard curve, the amount of TBARS in the LDL sample was calculated (in nmol/mg LDL protein) (see FIG. 11).

[3] = DPPH-scavenging activity versus N-acetyl-L-carnosine (Example 6); assay type: biochemical; conditions: 60 μM DPPH, 5 minutes; FIG. 6
Procedure: as §1, with “N-acetyl-L-carnosine” for “TEMPOL”, “DPPH” for “DPPH to a final concentration of 1 to 1000 μM,”, “distilled water” for “PBS(−)”, “substance solution” for “substance”, “6).” for “5).”

[4] = tested on: VEGF-triggered vascularization; assay: Vascularization-suppressing action, VEGF matrigel plug (Example 9); assay type: in vivo, C57BL/6 mice; conditions: 40 μM in matrigel plug containing 100 ng/mL VEGF; 6 days later; P<0.05; FIG. 9
Procedure: 5-S-GAD was added to a matrigelplug containing 100 ng/mL VEGF, for injections into female C57BL/6 mice. 6 days later, the matrigel plug was scissored out, to assay the hemoglobin content in the matrigel. The results are shown in mean±standard deviation. Testing were done by the Student's t test (*P<0.05).

[5] = Superoxide anion-scavenging activity, chemiluminescence, versus N-acetyl-L-carnosine (Example 7); assay type: biochemical; conditions: lucigenin chemiluminescence; FIG. 7
Procedure: In a 50 mM carbonate buffer (pH 10) containing 200 μM lucigenin, 100 μM xanthine and 1 mU/mL xanthine oxidase reacted together. The chemiluminescence level depending on the generated superoxide anion (O^2−) was assayed for 10 minutes. The area under the curve indicating the total chemiluminescence over the 10 minutes was calculated. A group to which PBS(−) instead of the test substance solution was added at the same amount as that of the solution, was defined as a control. In the same manner as in Example 3, the effect of 5-S-GAD or N-acetyl-L-carnosine added on the increase of chemiluminescence was examined. The suppressive activity thereof was defined as superoxide anion-scavenging activity (%) (see FIG. 7).

[6] = DPPH-scavenging action (Example 2); assay type: biochemical; conditions: for Radical-scavenging ratio (%): DPPH, ambient temperature, 5 minutes, mean, n=2
Procedure: DPPH (1,1-diphenyl-2-picrylhydrazyl) is one of nitrogen radicals and is a very stable radical, which is commercially available as a black-purple crystal (Wako Pure Chemical, Co., Ltd., etc.). N-β-Alanyl-5-S-glutathionyl-3,4-dihydroxyphenylalanine (5-S-GAD) (see Table 2) or Carnosine (under trade name) (see Table 3) was added to an ethanol solution of […] DPPH radical, for reaction at ambient temperature for 5 minutes (see the following reaction scheme). Instead of the test reagent, distilled water was added to the ethanol solution, which was used as a background. The DPPH absorbance at 517 nm was assayed, to calculate the scavenging ratio (%) of the DPPH radical according to the following equation. The scavenging ratio was defined as radical scavenger activity (mean, n=2; see Table 2, Table 3 and FIG. 2).
Radical-scavenging ratio (%)=[assay value of background (mean)−assay value of solution at each concentration]/background assay value (mean)]×100

Q: Which results are given for `NCCC(=O)N[C@@H](Cc1cc(O)c(O)c(SC[C@H](NC(=O)CC[C@H](N)C(=O)O)C(=O)NCC(=O)O)c1)C(=O)O` [5-S-GAD, N-β-alanyl-5-S-glutathionyl-3,4-dihydroxyphenylalanine]?
A: DPPH radical-scavenging action compared with TEMPOL (in words) [1]: excellent DPPH radical-scavenging action compared with TEMPOL; anti-oxidation action compared with N-acetyl-carnosine and L-carnosine (in words) [2]: excellent anti-oxidation action compared with N-acetyl-carnosine and L-carnosine; DPPH radical-scavenging action compared with N-acetyl-L-carnosine (in words) [3]: excellent DPPH radical-scavenging action compared with N-acetyl-L-carnosine; suppression of VEGF-triggered vascularization (hemoglobin content in the matrigel) [4]: suppressed significantly; superoxide anion (O^2−)-scavenging action compared with N-acetyl-L-carnosine (in words) [5]: excellent superoxide anion (O^2−)-scavenging action compared with N-acetyl-L-carnosine; Radical-scavenging ratio (%) ([6]; 1 μM added): 3.918%; Radical-scavenging ratio (%) ([6]; 3 μM added): 13.891%; Radical-scavenging ratio (%) ([6]; 10 μM added): 73.762%; Radical-scavenging ratio (%) ([6]; 30 μM added): 93.487%; action for scavenging the DPPH radical (in words) ([6]; summary of Table 2, Table 3 and FIG. 2): strong actions for scavenging the DPPH radical

Source: patent US8304452B2, “Radical scavenger and active oxygen eliminating agent” (InBiotex Inc., priority 2005, dated 2012)
